Here are results for two compounds from patent publication US7671062B2, “Modulators of chemokine receptor activity, crystalline forms and process” (Bristol-Myers Squibb Company, priority 2006, dated 2010).

A short description of data set [1]: Moisture-sorption isotherm. It is filed as physicochemical. Particulars: ca. 25% to ca. 75% RH at 25° C. How it is done: A sample of the oily, gel-like (amorphous) free base of N-((1R,2S,5R)-5-(isopropyl(methyl)amino)-2-((S)-2-oxo-3-(6-(trifluoromethyl)quinazolin-4-ylamino)pyrrolidin-1-yl)cyclohexyl)acetamide (approx 0.5 g), extracted from a sample of the BSA salt, was suspended in heptane (approx 5 mL). The flask was scratched with a metal spatula, and the suspension was stirred vigorously by a magnetic stir bar at 25° C. A white slurry of crystalline particles was obtained after 24 hours of stirring. The slurry was filtered and the wet cake dried in vacuo (40° C.) to provide the pure N-2 form (confirmed by PXRD) of the free base. Form N-2 was characterized by an XRD pattern which matches the simulated pattern generated from the single crystal structure data. Form N-2 is the neat (no solvate molecules or no molecules of water or solvent) form of N-((1R,2S,5R)-5-(isopropyl(methyl)amino)-2-((S)-2-oxo-3-(6-(trifluoromethyl)quinazolin-4-ylamino)pyrrolidin-1-yl)cyclohexyl)acetamide, free base. Form N-2, was characterized by a DSC thermogram having a melt endotherm onset typically at ca. 158° C. to ca. 162° C. Form N-2 was characterized by a TGA thermal curve having a negligible weight loss at up to ca. 145° C. which agreed with the single crystal structure data. The weight loss corresponded to adventitious solvent.

In data set [2] the target is CCR2 (Homo sapiens, UniProt P41597). Description: Cold competition ligand binding to hCCR2 using 125I-human MCP-1. Particulars: 125I-human MCP-1, n=8.
Sequence of CCR2 (P41597 whole entry): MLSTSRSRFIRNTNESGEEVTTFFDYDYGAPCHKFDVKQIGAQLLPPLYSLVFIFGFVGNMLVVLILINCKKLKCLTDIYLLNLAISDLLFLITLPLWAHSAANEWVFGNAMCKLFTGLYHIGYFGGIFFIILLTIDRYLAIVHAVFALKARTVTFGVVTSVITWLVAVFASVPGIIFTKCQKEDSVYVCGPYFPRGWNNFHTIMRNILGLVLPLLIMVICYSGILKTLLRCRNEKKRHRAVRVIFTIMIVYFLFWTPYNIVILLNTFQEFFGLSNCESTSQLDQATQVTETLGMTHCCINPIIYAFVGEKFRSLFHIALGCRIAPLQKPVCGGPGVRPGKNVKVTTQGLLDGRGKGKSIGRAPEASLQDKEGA

For orientation: Kd means the constant that tells how readily two partners part at equilibrium. A lower Kd goes with a tighter complex.

As for `CC(=O)N[C@@H]1C[C@H](N(C)C(C)C)CC[C@@H]1N1CC[C@H](Nc2ncnc3ccc(C(F)(F)F)cc23)C1=O` [Form N-2, N-((1R,2S,5R)-5-(isopropyl(methyl)amino)-2-((S)-2-oxo-3-(6-(trifluoromethyl)quinazolin-4-ylamino)pyrrolidin-1-yl)cyclohexyl)acetamide], the “moisture-sorption isotherm weight gain” value in data set [1] is listed as 0.15%.

In turn, “mouse MCP-1: mouse CCR2 ligand MCP-1 (chemokine)” came in with a Kd in data set [2] of 0.91 nM.
